In publication PMC12430364, “Characterization of Human Recombinant β1,4-GalNAc-Transferase B4GALNT1 and Inhibition by Selected Compounds” (Molecules, 2025):
pIC50: −log10 of the molar value.

Tests used:
Format in all cases: biochemical
[1] = biological target: T1, β1,4-N-acetylgalactosaminyltransferase 1 (B4GALNT1, GM2 synthase) (Homo sapiens, UniProt Q00973); assay: radiolabeled UDP-[3H]GalNAc transfer to GM3, purified enzyme; […] inhibition at […] and IC50
T1 construct: soluble His8-tagged, amino acids 1–25 deleted
T1 sequence (Q00973 26-533): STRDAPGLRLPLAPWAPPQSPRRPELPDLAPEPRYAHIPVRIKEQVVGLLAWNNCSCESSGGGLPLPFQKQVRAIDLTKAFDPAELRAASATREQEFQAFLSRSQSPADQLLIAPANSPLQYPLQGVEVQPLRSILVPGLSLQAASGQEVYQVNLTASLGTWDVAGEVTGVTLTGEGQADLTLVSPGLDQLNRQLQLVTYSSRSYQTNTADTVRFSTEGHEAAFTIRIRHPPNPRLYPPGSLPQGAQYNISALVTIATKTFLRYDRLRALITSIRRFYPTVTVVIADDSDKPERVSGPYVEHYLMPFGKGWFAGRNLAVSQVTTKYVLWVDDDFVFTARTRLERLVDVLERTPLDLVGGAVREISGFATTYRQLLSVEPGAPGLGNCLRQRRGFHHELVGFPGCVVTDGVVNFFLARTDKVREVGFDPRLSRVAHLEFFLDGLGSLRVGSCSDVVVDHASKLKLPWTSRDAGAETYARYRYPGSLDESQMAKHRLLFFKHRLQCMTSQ

[2] = biological target: T1, β1,4-N-acetylgalactosaminyltransferase 1 (B4GALNT1, GM2 synthase); assay: % inhibition at […], radiolabeled GalNAc transfer assay, purified enzyme
[3] = biological target: T1, β1,4-N-acetylgalactosaminyltransferase 1 (B4GALNT1, GM2 synthase); assay: radiolabeled GalNAc transfer assay, purified enzyme, apparent KM

Molecule: CCCCCCCCCCC[n+]1ccn(CCCCCCn2cc[n+](CCCCCCCCCCC)c2)c1 [QT163]
- pIC50 [1]: 3.70

Molecule: CCCC(=O)N[C@@H]1[C@@H](O)[C@H](O)[C@@H](CO)O[C@H]1Sc1ccc2ccccc2c1 [compound 612, 2-naphthyl 2-butanamido-2-deoxy-1-thio-β-D-glucopyranoside]
- inhibition at 1000 µM [2]: 44%

Molecule: GM3
- Km [3]: 500 µM
